Patent US20230329304A1, “METABOLIC THERAPY OF CANCER” (AMINOVITA S.L., priority 2020, published 2023)

Legend:
[1] = system: CT26.WT cancer cells; assay: Survival of mice with colon cancer (CT26.WT cells, intraperitoneal model); format: in vivo, female BALB/cAnNRJ mice
Source text: (§1) All mice were purchased from Janvier Labs® (France). Male BALB/cAnNRJ mice were used for the renal cancer model (Renca cells, intraperitoneal model). Female BALB/cAnNRJ mice were used for the colon cancer models (CT26WT cells, intraperitoneal and intravenous models), and for the triple negative breast cancer model (4T1 cells, intravenous model). Female C57BL/6J mice were used for the lung cancer model (LLc1 cells, intravenous model) and for the melanoma model (B16-F10 cells, intravenous model). All mice were 12 weeks or older at the beginning of the experiments. Treatments started 8 days after the injection of the cancer cells for the 4T1 breast cancer model and for the Renca renal cancer model (when the number of injected cells was 100.000). Treatments started 7 days after the injection for the Renca cancer model when the number of inoculated cells was 150.000, and for the LLc1 lung cancer model. Treatments started 4 days after the injection in the CT26WT colon cancer models (intraperitoneal and intravenous) and in the B16-F10 melanoma model.
Murine cells (5th-7th passage) were cultured in 75-cm2 flask. When the cells were approximately 60-70% confluent, medium was removed and cells were washed twice with sterile PBS. Then, cells were incubated with trypsin/EDTA solution for 2-3 min at 37° C. to allow cells to have a rounded shape but without detaching. Next, trypsin/EDTA solution was aspirated, cells were resuspended in 5 mL sterile PBS and the cell suspension was pipetted up and down to break up any cell aggregate before adding 10% FBS supplemented medium. […] Cells were counted again. […] After inoculating the last mice, the cells in the last tube were placed in a flask and monitored during several weeks under the microscope to ensure that all mice were inoculated with viable cells.
(§2) One day before the start of the treatments, mice were housed in individual cages to avoid cannibalism. […] Animals were monitored daily and body weights were determined periodically (at least three times per week). […]

[2] = system: CT26.WT cancer cells; assay: Survival of mice with colon cancer (CT26.WT cells, intravenous model); format: in vivo, female BALB/cAnNRJ mice
Source text: as §1, with “Treatments started 4 days after the injection in the CT26WT colon cancer models (intraperitoneal and intravenous) and in the B16-F10 melanoma model.” left out
(§3) Murine cells (5th-7th passage) were cultured in 75-cm2 flask. […] Cells were counted again. […] After inoculating the last mice, the cells in the last tube were placed in a flask and monitored during several weeks under the microscope to ensure that all mice were inoculated with viable cells.
as §2

[3] = system: 4T1 cancer cells; assay: Survival of mice with triple negative breast cancer (4T1 cells, intravenous model); format: in vivo; conditions: for mean survival (FIG. 4): 100,000 4T1 cells tail vein, treatment from day 8, diets 28 days, capecitabine 450 mg/kg/day oral cycles, cisplatin 5 mg/kg weekly x4 ip, control 26.1 days; for Survival improvement vs untreated mice (mean, days): Breast cancer, 4T1 cells, 100.000, tail vein injection (iv)
Source text: as §1
(§4) Murine cells (5th-7th passage) were cultured in 75-cm2 flask. When the cells were approximately 60-70% confluent, medium was removed and cells were washed twice with sterile PBS. Then, cells were incubated with trypsin/EDTA solution for 2-3 min at 37° C. to allow cells to have a rounded shape but without detaching. Next, trypsin/EDTA solution was aspirated, cells were resuspended in 5 mL sterile PBS and the cell suspension was pipetted up and down to break up any cell aggregate before adding 10% FBS supplemented medium. Then, a working cell suspension (between 5×10^5-25×10^6 cells/mL depending on cancer model) was prepared. This suspension was centrifuged (5 min, 250 g) at room temperature. Medium was removed and cells were resuspended in warm 2.5% FBS supplemented medium. The working cell suspension was aliquoted into 2 mL tubes and they were kept at 37° C. in a humidified atmosphere containing 5% CO2 until use. Several minutes before the injection, tubes were centrifuged at 300 g 4° C. for 3 min, medium was removed and cells were resuspended in sterile PBS. Cells were counted again. Finally, a 1-mL syringe (insulin type with a 29-G×½″ needle) was filled with 0.2 mL of the working cell suspension, which was injected in the peritoneal cavity or in the tail vein of the mice. After inoculating the last mice, the cells in the last tube were placed in a flask and monitored during several weeks under the microscope to ensure that all mice were inoculated with viable cells.
One day before the start of the treatments, mice were housed in individual cages to avoid cannibalism. Treatments started four, seven or eight days (depending on the model) after injecting the cancer cells. Most treatments with the artificial diets lasted at least 4 weeks. Treatment with the artificial diets simply consisted of replacing their normal diet with an artificial diet in which the levels of specific AAs and lipids were manipulated. Sunitinib, and capecitabine were administered daily in the diet. Cisplatin and the anti-PD1 antibody were injected intraperitoneally. Animals were monitored daily and body weights were determined periodically (at least three times per week). […] Post-mortem examination was carried out to confirm the cause of death and to observe the extent of the disease. Autopsies confirmed the presence of tumors in all euthanized mice. […]

[4] = system: B16-F10 cells; assay: Survival of mice with melanoma (B16-F10 cells, intravenous model); format: in vivo, female C57BL/6J mice; conditions: B16-F10 cells, 500.000, tail vein injection (iv), C57BL/6J mice
Source text: as §1, with “Treatments started 4 days after the injection in the CT26WT colon cancer models (intraperitoneal and intravenous) and in the B16-F10 melanoma model.” left out
as §3, §2

[5] = system: Renca cancer cells; assay: Survival of mice with renal cancer (Renca cells, intraperitoneal model); format: in vivo, male BALB/cAnNRJ mice
Source text: as §1, §4, §2

| Compound | mean survival (FIG. 2) ([1]; 100,000 CT26.WT cells ip, treatment from day 4, P10 6 weeks, capecitabine 450 mg/kg/day oral cycles, control 24.6 days) [days] | days lived more than untreated mice ([1]; 100,000 CT26.WT cells ip, treatment from day 4, diets 6 weeks, capecitabine 450 mg/kg/day, 7-day treatment+7-day rest, oral) [days] | Survival improvement vs untreated mice (mean, days) ([1]; Colon cancer, CT26.WT cells, 10.000, intraperitoneal injection (ip)) | mean survival (FIG. 3) ([2]; 100,000 CT26.WT cells tail vein, treatment from day 4, P6 28 days, capecitabine 450 mg/kg/day oral cycles, control 33.3 days) [days] | Survival improvement vs untreated mice (mean, days) ([2]; Colon cancer, CT26.WT cells, 10.000, tail vein injection (iv)) [days] | premature deaths by drug toxicity ([3]; 4T1 iv model, capecitabine 450 mg/kg/day, 7-day treatment+7-day rest, oral, n=10) | mean survival (FIG. 4) [3] [days] | Survival improvement vs untreated mice (mean, days) [3] | Survival improvement vs untreated mice (mean, days) [4] | mean survival (FIG. 1) ([5]; 100,000 Renca cells ip, treatment from day 8, P2 28 days, sunitinib 60 mg/kg/day 28 days oral, anti-PD1 250 μg ip x4, control 35.2 days) [days] | Mean survival ([5]; 150,000 Renca cells ip, treatment from day 7, 28 days, 10 days normal diet, 21 more days, sunitinib 60 mg/kg/day oral, control 30.75) [days] | Survival improvement vs. Control ([5]; 150,000 Renca cells ip, treatment from day 7, Table 4 experiment) [days] | Survival improvement vs untreated mice (mean, days) ([5]; Renal cancer, renca cells, 100.000, intraperitoneal injection (ip)) |
| --- | --- | --- | --- | --- | --- | --- | --- | --- | --- | --- | --- | --- | --- |
| CCCCCOC(=O)Nc1nc(=O)n([C@@H]2O[C@H](C)[C@@H](O)[C@H]2O)cc1F [Capecitabine] | 27.7 | 4.5 | +7.6 days | 36.7 | 0.0 | two mice died prematurely by excessive drug toxicity | 24.2 | +3.7 days | – | – | – | – | – |
| N.N.[Cl][Pt][Cl] [Cisplatin] | – | – | – | – | – | – | 33.6 | +4.7 days | +3.5 days | – | – | – | – |
| CCN(CC)CCNC(=O)c1c(C)[nH]c(/C=C2\C(=O)Nc3ccc(F)cc32)c1C [Sunitinib, Sunitinib malate] | – | – | – | – | – | – | – | – | – | 62.2 | 48 | 17.25 | +20.4 days |
